Results: patent US10702577B2, “Combination therapies using cyclosporine and aromatic cationic peptides” (STEALTH BIOTHERAPEUTICS CORP, priority 2010, dated 2020)
Square brackets hold non-standard residues; d marks the D form. Ends that are not written are not given here. Peptide text beside a SMILES is read from it.

What was measured:
[1] = system: several mammalian cell types; conditions: energy-independent manner; Zhao et al. 2003; cited from earlier work
[2] = system: transplanted tissue or organ; cyclosporine nephrotoxicity; test: Peptide with cyclosporine in transplant patients: organ health and nephrotoxicity (Example 7); assay type: in vivo; conditions: subjects who receive the peptide versus those who do not; predicted
Description: To prevent organ or tissue rejection after transplant, patients often receive a regimen of the immunosuppressive drug cyclosporine. Cyclosporine levels are established and maintained in the subject at levels to effectively suppress the immune system. However, nephrotoxicity is a concern for these subjects, and the level of the drug in the subject's blood is monitored carefully. Cyclosporine doses are adjusted accordingly in order to not only prevent rejection, but also to deter these potentially damaging side effects. Typically, an adult transplant patient receives cyclosporine as follows: IV: 2 to 4 mg/kg/day IV infusion once a day over 4 to 6 hours, or 1 to 2 mg/kg IV infusion twice a day over 4 to 6 hours, or 2 to 4 mg/kg/day as a continuous IV infusion over 24 hours. Capsules: 8 to 12 mg/kg/day orally in 2 divided doses. Solution: 8 to 12 mg/kg orally once a day. […]
A therapeutically effective amount of an aromatic-cationic peptide or pharmaceutically acceptable salt thereof such as acetate or trifluoroacetate salt is administered to subjects prior to, during and/or after transplant as show in Table 13 above. Subjects are monitored for health and function of the transplanted tissue or organ, as well as the incidence and severity of nephrotoxicitity often seen with prolonged cyclosporine administration.

[3] = system: mu-opioid receptor; conditions: result in words; no data shown; cited from earlier work

Question: Which “penetration of the plasma membrane” value [1] does the source give for 2′,6′-Dmt-D-Arg-Phe-Lys-NH2 [SS-02] here?
Answer: readily penetrates the plasma membrane

Question: With `Cc1cc(O)cc(C)c1C[C@H](NC(=O)[C@H](N)CCCNC(=N)N)C(=O)N[C@@H](CCCCN)C(=O)N[C@@H](Cc1ccccc1)C(N)=O` [PEPTIDE, D-Arg-2′6′-Dmt-Lys-Phe-NH2] (HELM PEPTIDE1{[dR].[Cc1cc(O)cc(C)c1C[C@H](N[*:1])C(=O)[*:2]].K.F.[am]}$$$$V2.0) as the compound, how does the tolerated cyclosporine dosage [2] read?
Answer: able to maintain a higher and/or more consistent cyclosporine dosage for longer periods of time

Question: For F[dR]FK-NH2 [SS-20], which “mu-opioid receptor agonist activity” value [3] is on record?
Answer: does not have mu-opioid receptor agonist activity

Question: Which “mu-opioid receptor agonist activity” value [3] does the source give for Tyr-D-Arg-Phe-Lys-NH2 [SS-01] here?
Answer: has mu-opioid receptor agonist activity
